The results in this text go back to patent US12600740B2, “Fluorinated N-acetyl glucosamine analogs and xylose derivatives” (UTI Limited Partnership, priority 2018, dated 2026).

The test system of one series is CD3+ T cells. Nature of the series: Annexin V/propidium iodide staining. It is filed as cell-based. Particulars: for cell death on splenocytes: propidium iodide/annexin V staining or cell cycle analysis; for necrotic, apoptotic, dead or live cells (Annexin V/PI): isolated CD3+ T cells, 25 μM and 50 μM. An excerpt: Cell-cycle flow cytometry with propidium iodide was used to corroborate the above results, and ensure the reduction in proliferation was not due to cell death. […] To further investigate whether the reduction of proliferation was due to cell death, Annexin V and propidium iodide staining were used to differentiate necrotic cells (propidium iodide+), apoptotic cells (annexin V+), dead cells (propidium iodide+ and annexin V+), and live cells (propidium iodide-annexin V−).
Cell cycle staining with propidium iodide (PI) and analysis by flow cytometry gives percentage of cells in apoptosis, G1, G2, and synthesis, and apoptosis. Following a membrane permeabilization, PI chelates to DNA and level of staining specifies the stage of the cell cycle (e.g., G2 phase will have twice the DNA and thus twice the PI signal as G1 phase, apoptotic cells contain less DNA than healthy cells and are identified by low PI staining). 1×10^6 splenocytes were used per sample, with four replicates per condition. Cells were collected into a tube with PBS and centrifuged (200 r.p.m. for 5 minutes). Pellet was resuspended in 500 μl PBS and 500 μl ice cold 100% ethanol was slowly added with gentle vortexing of sample. Cell suspension was stored at 4° C. for at least 2 hours (up to two weeks). Next, the suspension was centrifuged at 200 r.p.m. for 3 minutes, pellet was resuspended in PBS and suspension was centrifuged at 200 r.p.m for 10 minutes at 4° C. Pellet was resuspended in 350 μl of PI staining buffer (50 μg/ml propidium iodide, 0.1% TritonX100, 0.2 mg Dnase free Rnase A in PBS) and incubated for 30-45 minutes at room temperature. Suspension was transferred to a FACs tube and analyzed. Annexin V/Propidium iodide staining was detected using the Annexin V FITC apoptosis detection kit (BD Biosciences, #556547), which was performed according to manufacturer's instructions.

Another series relates to human neurons. As to the kind of experiment: Human neuron ATP luminescence assay. It is filed as cell-based. Particulars: 100 μM. The protocol: If the sugar compounds are to be used in neurological disorders, they should not display toxicity to neural cells. Thus, human neurons were used to test the compounds, and the ATP luminescence assay as a readout of metabolic stress and a surrogate of toxicity. Compounds were tested at a high dose of 100 μM. […] Two compounds that reduced ATP production by more than 50% were the 4-fluorinated hemiacetals that respectively bear O3,O6-diacetates 10 (Ac-4-F-GlcNAcOH) and O3,O6-dipropanoates 11 (Pr-4-F-GlcNAcOH), with the former displaying higher cytotoxicity than the latter (FIG. 6d).
Human fetal neurons were plated at 10×10^4 cells/well in 96 well plates as previously described [Vecil, G. G. et al. Interleukin-1 is a key regulator of matrix metalloproteinase-9 expression in human neurons in culture and following mouse brain trauma in vivo. Journal of Neuroscience Research 61, 212-224 (2000)]. After 24 hours neurons were treated with 100 μM compounds and incubated for 24 hours. The ATP assay (CellTiter-Glo Luminescent Cell Viability Assay; Promega, Madison, WI, USA) was then performed to test for toxicity according to manufacturer's instructions.

Series [1] has as its system intact 4-sulfated chondroitin sulfate sidechains (2H6). As to the kind of experiment: Western blot of astrocyte conditioned medium, 2H6 (intact chondroitin-4-sulfate). It is filed as cell-based, mouse. Particulars: astrocyte conditioned media. The source says:
Astrocytes are major producers of CSPGs following injury in the CNS [Jones, L. L., Margolis, R. U. & Tuszynski, M. H. The chondroitin sulfate proteoglycans neurocan, brevican, phosphacan, and versican are differentially regulated following spinal cord injury. Experimental Neurology 182, 399-411 (2003); Tang, X., Davies, J. E. & Davies, S. J. Changes in distribution, cell associations, and protein expression levels of NG2, neurocan, phosphacan, brevican, versican V2, and tenascin-C during acute to chronic maturation of spinal cord scar tissue. […] The Journal of neuroscience: the official journal of the Society for Neuroscience 20, 2427-2438 (2000); McKeon, R. J., Jurynec, M. J. & Buck, C. R. The chondroitin sulfate proteoglycans neurocan and phosphacan are expressed by reactive astrocytes in the chronic CNS glial scar. The Journal of neuroscience: the official journal of the Society for Neuroscience 19, 10778-10788 (1999); Haas, C. A., Rauch, U., Thon, N., Merten, T. & Deller, T. Entorhinal cortex lesion in adult rats induces the expression of the neuronal chondroitin sulfate proteoglycan neurocan in reactive astrocytes. The Journal of neuroscience: the official journal of the Society for Neuroscience 19, 9953-9963 (1999)] and they may help drive progression of disability in a model of progressive MS [Mayo, L. et al. Regulation of astrocyte activation by glycolipids drives chronic CNS inflammation. Nature medicine 20, 1147-1156 (2014)]. Therefore astrocytes were used as model cells to determine the ability of the sugar analogs to reduce synthesis of CSPGs. Since CSPGs are exported out of cells, the conditioned media from analog-treated astrocytes were probed by Western blots (FIG. 4). We used antibodies to both the stubs of chondroitin sulfate GAGs attached to the core protein (MAB2030) and to intact 4-sulfated chondroitin sulfate sidechains (2H6) (FIG. 4a). Particularly, we used the 2H6 antibody to label intact 4-sulfated chondroitin sulfate sidechains, and the MAB2030 antibody to detect the stubs of chondroitin sulfate GAGs attached to the core protein. […] 1998, 160 (8), 3812-3819. Poole Poole C. A.; Glant T. T.; Schofield J. R.; Chondrons from articular cartilage. (IV). Immunolocalization of proteoglycan epitopes in isolated canine tibial chondrons. J. Histochem. Cytochem. 1991, 39 (9), 1175-1187].
Astrocytes were plated in uncoated 6-well plates (3 replicate wells per treatment) at 1×10^6 cells/well in mixed glial media, and incubated at 5% CO2 and 37° C. Astrocytes were treated with compounds at 50 μM in AIM-V media for 48 hours. Media was pooled from 3 replicate wells in 15 ml 100K cutoff centricon tubes (EMD Millipore, #UFC905008), which were spun on an ultracentrifuge at 5000× g for 2 cycles of 10 minutes each. […] Total protein was quantified using a Bradford assay. […]

Entries after “also recorded” stand apart in the source; their conditions may differ.

As to `CCCC(=O)OC1OC(COC(C)=O)[C@@H](F)[C@H](OC(C)=O)C1NC(C)=O` (mixture of isomers) [Compound 8, 2-Acetamido-3,6-di-O-acetyl-1-O-butanoyl-2,4-dideoxy-4-fluoro-α/β-D-glucopyranose], the “cell death on splenocytes” value with CD3+ T cells was “did not show detectable cell death”.

For `CC(=O)NC1C(O)OC(COC(C)=O)[C@@H](F)[C@@H]1OC(C)=O` (mixture of isomers) [Compound 10], in the series on CD3+ T cells, the “cell death on splenocytes” value is given as “did not show detectable cell death”. The cytotoxicity on neurons result in the series on human neurons is given as “showed evidence of toxicity on neurons”. Moreover, the “total chondroitin sulfate side chains (2H6)” value in series [1] is on record as “showed evidence of reducing total chondroitin sulfate side chains”.

As for `CC(=O)NC1C(OC(C)=O)OC(COC(C)=O)C(F)(F)[C@@H]1OC(C)=O` (mixture of isomers) [Compound 16, 2-Acetamido-1,3,6-tri-O-acetyl-2,4-dideoxy-4,4-difluoro-α/β-D-xylo-hexopyranose], in the series on CD3+ T cells, the “necrotic, apoptotic, dead or live cells (Annexin V/PI)” value is “no evidence of causing non-specific cell apoptosis or necrosis; also recorded: did not display notable changes in their proportion of necrotic, apoptotic, dead, or live cells” and the “cell death on splenocytes” value was “did not show detectable cell death”. The cytotoxicity on neurons result in the series on human neurons was “no signs of toxicity in neurons”. The “total chondroitin sulfate side chains (2H6)” value in series [1] was “showed evidence of reducing total chondroitin sulfate side chains”.

Consider `CC(=O)NC1C(OC(C)=O)OC(COC(C)=O)[C@@H](F)C1OC(C)=O` (stereo partly shown) [Compound 3, reference compound], for which, in the series with CD3+ T cells, the “necrotic, apoptotic, dead or live cells (Annexin V/PI)” value is “no evidence of causing non-specific cell apoptosis or necrosis; also recorded: did not display notable changes in their proportion of necrotic, apoptotic, dead, or live cells” and the “cell death on splenocytes” value is recorded as “did not show detectable cell death”. For the same molecule, the “total chondroitin sulfate side chains (2H6)” value in series [1] is recorded as “showed evidence of reducing total chondroitin sulfate side chains”.

For `CCC(=O)OC1OC(COC(C)=O)[C@@H](F)[C@H](OC(C)=O)C1NC(C)=O` (stereo partly drawn) [Compound 7, 2-Acetamido-3,6-di-O-acetyl-2,4-dideoxy-4-fluoro-1-O-propanoyl-α/β-D-glucopyranose], the “total chondroitin sulfate side chains (2H6)” value in series [1] is given as “showed evidence of reducing total chondroitin sulfate side chains”.

Regarding `CCCC(=O)OC[C@H]1OC(O)[C@H](NC(C)=O)[C@@H](OC(=O)CCC)[C@@H]1F` (stereo partly drawn) [Compound 12, 2-Acetamido-3,6-di-O-butanoyl-2,4-dideoxy-4-fluoro-α/β-3-D-glucopyranose], in the series on human neurons, the cytotoxicity on neurons entry is given as “showed no cytotoxicity”.
